Here are results for one compound from article PMC7775851 (Journal of Pharmaceutical Analysis, 2019).

Series [1] is described as follows: Stability of ilaprazole racemate stock solution. The following applies: stock solution in acetonitrile, −80 °C for 15 days. In kind it is physicochemical.
For a further series, the system named is CYP3A. As to conditions: cited from earlier work.

For `COc1ccnc(C[S+]([O-])c2nc3cc(-n4cccc4)ccc3[nH]2)c1C` (racemic) [ilaprazole racemate, ilaprazole], the “Stability of stock solution (in words)” value in series [1] is on record as “stable”. Moreover, the Metabolizing enzyme entry with CYP3A is on record as “mainly metabolized by CYP3A”.
